These results are taken from patent US12233161B1, “Lipids and lipid nanoparticle formulations” (LONGUIDE BIOPHARMA CORPORATION, priority 2024, dated 2025).

One data set has as its system mice. Nature of the data set: In vivo delivery of FLuc-mRNA lipid nanoparticles in mice, in vivo imaging (IVIS). The method, boiled down:
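Mice (n=3) received about 75 μL FLuc-mRNA LNP per mouse intramuscularly (rectus femoris), intravenously (tail vein), intraperitoneally or subcutaneously (back). After injection, D-luciferin (200 μL, 15 mg/mL) was given i.p. 10-15 min before IVIS imaging.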

Data set [1] can be described thus: Particle size and PDI of nucleic acid lipid nanoparticle preparations by dynamic light scattering. It counts as physicochemical. Here is the method:
The 7.5 μL nucleic acid lipid nanoparticle solution (containing approximately 0.04 mg/mL mRNA) was taken and added with 200 μL ultrapure water, mixed by gentle blowing using a pipette tip, and the particle size of the nanopreparation was detected by dynamic lightscattering (DLS) using a Malvern Dynamic Light Scattering Instrument (Malvern Instruments Ltd., ZEN3700, UK).
27.5 μL nucleic acid lipid nanoparticle solution (containing about 0.04 mg/mL mRNA) was taken and added with 200 μL ultrapure water. A pipette tip was used to gently blow the sample and mix well. The particle size of the nanopreparation was detected by Malvern Dynamic Light Scattering Instrument (Malvern Instruments Ltd., ZEN3700, UK). After the detection, the sample was recovered to an EP tube, and 600 μL of ultrapure water was added, gently blown with a pipette tip, and the potential of the nanopreparation was measured by a Malvern particle size meter.

The mark [2] stands for this setting: IM, DMG-PEG2000:DSPC:Chol:compound 1.40:11.15:38.95:48.50, N/P 30, Fluc-mRNA.
The mark [3] stands for this setting: IV, body, DMG-PEG2000:DSPC:Chol:compound 1.40:11.15:38.95:48.50, N/P 30, Fluc-mRNA.
The mark [4] stands for this setting: IV, liver, DMG-PEG2000:DSPC:Chol:compound 1.40:11.15:38.95:48.50, N/P 30.
Setting [5] is: IV, liver, DMG-PEG2000:DSPC:Chol:compound 1.40:11.15:38.95:48.50, N/P 30, Fluc-mRNA.
Where [6] appears, read: IV, lung, DMG-PEG2000:DSPC:Chol:compound 1.40:11.15:38.95:48.50, N/P 30.
The mark [7] stands for this setting: IV, lung, DMG-PEG2000:DSPC:Chol:compound 1.40:11.15:38.95:48.50, N/P 30, Fluc-mRNA.
Where [8] appears, read: IV, spleen, DMG-PEG2000:DSPC:Chol:compound 1.40:11.15:38.95:48.50, N/P 30.
[9] abbreviates: IV, spleen, DMG-PEG2000:DSPC:Chol:compound 1.40:11.15:38.95:48.50, N/P 30, Fluc-mRNA.
[10] abbreviates: DMG-PEG2000:DSPC:Chol:compound 1.40:11.15:38.95:48.50, N/P 30.
The mark [11] stands for this setting: DMG-PEG2000:DSPC:Chol:Lipid 0.95:7.58:26.47:65.00, N/P 18, mRNA LNP.
Setting [12] is: DMG-PEG2000:DSPC:Chol:Lipid 1.40:11.15:38.95:48.50, N/P 18, mRNA LNP.
Setting [13] is: IV, organ not given, DMG-PEG2000:DSPC:Chol:compound 1.40:11.15:38.95:48.50, N/P 30, Fluc-mRNA.
Where [14] appears, read: DMG-PEG2000:DSPC:Chol:Lipid 1.40:11.15:38.95:48.50, N/P 45, mRNA LNP.
[15] abbreviates: DMG-PEG2000:DSPC:Chol:Lipid 1.77:14.07:49.16:35.00, N/P 45, mRNA LNP.
Where [16] appears, read: Fluc-mRNA LNP, route IM, organ not given, formulation, molar ratio and N/P as in the table.
Setting [17] is: Fluc-mRNA LNP, route IV, organ: body, formulation, molar ratio and N/P as in the table.
Where [18] appears, read: Fluc-mRNA LNP, route IV, organ: liver, formulation, molar ratio and N/P as in the table.
Setting [19] is: Fluc-mRNA LNP, route IV, organ: lung, formulation, molar ratio and N/P as in the table.
The mark [20] stands for this setting: Fluc-mRNA LNP, route IV, organ: spleen, formulation, molar ratio and N/P as in the table.
Setting [21] is: Fluc-mRNA LNP, route IM, organ: liver, formulation, molar ratio and N/P as in the table.
Setting [22] is: Fluc-mRNA LNP, route IM, organ: lung, formulation, molar ratio and N/P as in the table.
Setting [23] is: Fluc-mRNA LNP, route IM, organ: spleen, formulation, molar ratio and N/P as in the table.

As to `CCCCCCC(CCCCCC)C(=O)OCCCCOC(=O)C(O)CN(CCN(C)CCN(CC(O)C(=O)OCCCCOC(=O)C(CCCCCC)CCCCCC)CC(O)C(=O)OCCCCOC(=O)C(CCCCCC)CCCCCC)CC(O)C(=O)OCCCCOC(=O)C(CCCCCC)CCCCCC` (centres unmarked) [Compound L0297], the IVIS in the data set on mice (setting [2]) was 8.34E+07; in the data set on mice (setting [3]), 1.64E+08; in the data set on mice (setting [5]), 3.82E+07; in the data set with mice (setting [7]) it was 1.44E+07; with mice (setting [9]) it was 5.59E+07. The results for the “% of organ targeting” value in the data set on mice (setting [4]), with mice (setting [6]) and in the data set on mice (setting [8]) were 35.19%, 13.24% and 51.57%, respectively. Also, in data set [1] (setting [10]), the PDI was 0.13. Further, the “Particle size (nm)” value in data set [1] (setting [10]) is on record as 119.00 nm.

As to `CCCCCCCCCCOC(=O)C(O)CN(C)CCN(C)CCN(C)CC(O)C(=O)OCCCCCCCCCC` (centres unmarked) [Compound L0275], the IVIS in the data set on mice (DMG-PEG2000:DSPC:Chol:Lipid 0.95:7.58:26.47:65.00, N/P 18, IM, whole body scan) is listed as 1.47 × 10^6; with mice (DMG-PEG2000:DSPC:Chol:Lipid 1.40:11.15:38.95:48.50, N/P 18, IV, whole body scan) it was 4.52 × 10^5. The PDI in data set [1] (setting [11]) stood at 0.13 ± 0.01; in data set [1] (setting [12]), 0.17 ± 0.01. The values for the Particle size in data set [1] (setting [11]) and in data set [1] (setting [12]) were 121.27 ± 0.93 nm and 85.45 ± 0.70 nm, respectively.

For the compound `CCCCCCCCCCCCNCC(O)CN(CCN(CCN(CC(O)CNCCCCCCCCCCCC)CC(O)C(=O)NCCCCCCCCCCCC)CC(O)C(=O)NCCCCCCCCCCCC)CC(O)C(=O)NCCCCCCCCCCCC` (centres unmarked) [Compound L0332], the IVIS in the data set with mice (setting [2]) was 7.75E+05. The IVIS with mice (setting [13]) is 3.67E+05. Besides, in data set [1] (setting [10]), the PDI turned out to be 0.18 and the “Particle size (nm)” value is reported as 150.70 nm.

In the data set with mice (setting [2]), `CCCCCCCCCCCCOC(=O)C(O)CN(C)CCCN(C)CCCN(C)CC(O)C(=O)OCCCCCCCCCCCC` (centres unmarked) [Compound L0310] gave an IVIS of 1.53E+05. The compound further yielded an IVIS in the data set with mice (setting [13]) of 2.77E+05. Moreover, in data set [1] (setting [10]), the PDI is listed as 0.22 and the “Particle size (nm)” value is 190.63 nm.

On to `CCCCCCCCCCCCNC(=O)C(O)CN(CCCN(CC(O)C(=O)NCCCCCCCCCCCC)CC(O)C(=O)NCCCCCCCCCCCC)CCCN(CC(O)C(=O)NCCCCCCCCCCCC)CC(O)C(=O)NCCCCCCCCCCCC` (centres unmarked) [Compound L0267], for which the IVIS is 3.89 × 10^5 in the data set on mice (DMG-PEG2000:DSPC:Chol:Lipid 1.40:11.15:38.95:48.50, N/P 45, IV, whole body scan) and 1.05 × 10^6 in the data set on mice (DMG-PEG2000:DSPC:Chol:Lipid 1.77:14.07:49.16:35.00, N/P 45, IM, whole body scan). For the same compound, the PDI in data set [1] (setting [14]) was found to be 0.16 ± 0.02; in data set [1] (setting [15]), 0.14 ± 0.01. In addition, the Particle size in data set [1] (setting [14]) is 148.37 ± 1.40 nm; in data set [1] (setting [15]), 121.47 ± 0.72 nm.

As to `CCCCCCOC(C)OCCCCCCOC(=O)C(O)CN(CCN(C)CCN(CC(O)C(=O)OCCCCCCOC(C)OCCCCCC)CC(O)C(=O)OCCCCCCOC(C)OCCCCCC)CC(O)C(=O)OCCCCCCOC(C)OCCCCCC` (centres unmarked) [Compound L0333], the IVIS with mice (setting [2]) was 1.70E+06; in the data set with mice (setting [3]), 6.44E+08; in the data set with mice (setting [5]) it was 1.29E+08; with mice (setting [7]), 7.15E+06; with mice (setting [9]), 3.63E+07. For the same compound, the “% of organ targeting” value in the data set on mice (setting [4]) stood at 74.80%; in the data set with mice (setting [6]) it was 4.15%; in the data set with mice (setting [8]) it was 21.05%. This compound also returned a PDI in data set [1] (setting [10]) of 0.09. Moreover, the “Particle size (nm)” value in data set [1] (setting [10]) was 130.70 nm.

Turning to `CCCCCCCC/C=C\CCCCCCCCNC(=O)C(O)CN(CCN(C)CCN(CC(O)C(=O)NCCCCCCCC/C=C\CCCCCCCC)CC(O)C(=O)NCCCCCCCC/C=C\CCCCCCCC)CC(O)C(=O)NCCCCCCCC/C=C\CCCCCCCC` (centres unmarked) [Compound L0299], the IVIS in the data set with mice (setting [2]) was determined as 1.92E+06; with mice (setting [3]), 1.55E+07; with mice (setting [5]) it was 7.84E+05; in the data set on mice (setting [7]) it was 4.48E+06; with mice (setting [9]), 5.50E+06. Moreover, the “% of organ targeting” value worked out at 7.28% in the data set on mice (setting [4]), 41.60% in the data set with mice (setting [6]) and 51.12% with mice (setting [8]). The same compound yielded a PDI in data set [1] (setting [10]) of 0.16. For the same compound, the “Particle size (nm)” value in data set [1] (setting [10]) is given as 91.76 nm.

`CCCCCCCCCCCCNC(=O)C(CN(CCCN(C)CCCN(CC(OC(C)=O)C(=O)NCCCCCCCCCCCC)CC(OC(C)=O)C(=O)NCCCCCCCCCCCC)CC(OC(C)=O)C(=O)NCCCCCCCCCCCC)OC(C)=O` (centres unmarked) [Compound L0388]: the IVIS turned out to be 1.49E+07 in the data set with mice (setting [16]); 1.49E+08 in the data set on mice (setting [17]); 2.37E+07 in the data set with mice (setting [18]); 1.74E+06 in the data set on mice (setting [19]); 8.08E+07 in the data set on mice (setting [20]). Further, the “% of organ targeting” value in the data set with mice (setting [18]) came out at 22.33%; with mice (setting [19]), 1.64%; with mice (setting [20]), 76.03%.

`CCCCCCCCCCN(C)C(=O)C(O)CN(CCN(C)CCN(CC(O)C(=O)N(C)CCCCCCCCCC)CC(O)C(=O)N(C)CCCCCCCCCC)CC(O)C(=O)N(C)CCCCCCCCCC` (centres unmarked) [Compound L0349]: the IVIS in the data set with mice (setting [16]) came to 8.25E+04; in the data set with mice (Fluc-mRNA LNP, route IV, organ not given, formulation, molar ratio and N/P as in the table) it was 5.98E+05.

For `CCCCCCCCC(CCCCCC)C(=O)NCCOC(=O)C(O)CN(CCN(C)CCN(CC(O)C(=O)OCCNC(=O)C(CCCCCC)CCCCCCCC)CC(O)C(=O)OCCNC(=O)C(CCCCCC)CCCCCCCC)CC(O)C(=O)OCCNC(=O)C(CCCCCC)CCCCCCCC` (centres unmarked) [Compound L0374], in the data set with mice (setting [16]), the IVIS turned out to be 6.46E+07.

For `CCCCCCC(CCCCCC)C(=O)NCCOC(=O)C(O)CN(CCCN(CC(O)C(=O)OCCNC(=O)C(CCCCCC)CCCCCC)CC(O)C(=O)OCCNC(=O)C(CCCCCC)CCCCCC)CCCN(CC(O)C(=O)OCCNC(=O)C(CCCCCC)CCCCCC)CC(O)C(=O)OCCNC(=O)C(CCCCCC)CCCCCC` (centres unmarked) [Compound L0363], the IVIS in the data set on mice (setting [16]) was 2.08E+07; in the data set with mice (setting [17]), 6.16E+09; in the data set with mice (setting [18]) it was 6.56E+08; in the data set on mice (setting [19]), 4.56E+06; in the data set on mice (setting [20]), 9.96E+06.

Take `CCCCCCC(CCCCCC)C(=O)NCCNC(=O)C(O)CN(CCN(C)CCN(CC(O)C(=O)NCCNC(=O)C(CCCCCC)CCCCCC)CC(O)C(=O)NCCNC(=O)C(CCCCCC)CCCCCC)CC(O)C(=O)NCCNC(=O)C(CCCCCC)CCCCCC` (centres unmarked) [Compound L0380]: the “% of organ targeting” value in the data set on mice (setting [21]) came to 61.06%; in the data set with mice (setting [22]) it was 1.54%; in the data set with mice (setting [23]), 37.40%; with mice (setting [18]), 96.36%; in the data set with mice (setting [19]) it was 0.40%; with mice (setting [20]), 3.24%. The IVIS in the data set on mice (setting [21]) is on record as 3.14E+07; in the data set on mice (setting [22]) it was 7.90E+05; in the data set with mice (Fluc-mRNA LNP, route IM, organ: muscle, formulation, molar ratio and N/P as in the table), 4.58E+08; in the data set with mice (setting [23]), 1.92E+07; with mice (setting [17]), 7.98E+09; with mice (setting [18]), 2.14E+09. For the same compound, the results for the IVIS with mice (setting [19]) and with mice (setting [20]) were 8.80E+06 and 7.18E+07, respectively.
